Common to all, as to format: in vivo
One assay deals with Solanum. As to the kind of experiment: Post-emergence test/greenhouse. The settings on record: 504 h, after three weeks, read-out: degree of damage, Solanum; for pest or weed control at 125 g/ha: 125 g of a.i./ha. Here is the method: (§1) To produce a suitable preparation of active compound, 1 part by weight of active compound is mixed with the stated amount of solvent, the stated amount of emulsifier is added and the concentrate is diluted with water to the desired concentration.
(§2) Test plants of a height of 5 -15 cm are sprayed with the preparation of active compound such that the particular amounts of active compound desired are applied per unit area. The concentration of the spray liquor is chosen so that the particular amounts of active compound desired are applied in 1000 l of water/ha.
(§3) After three weeks, the degree of damage to the plants is rated in % damage in comparison to the development of the untreated control.
(§4) 0%=no effect (like untreated control)

The next assay has as its system Stellaria. As to the kind of experiment: Post-emergence test/greenhouse. To be noted: 504 h, after three weeks, read-out: degree of damage, Stellaria; for pest or weed control at 125 g/ha: 125 g of a.i./ha; for pest or weed control at 60 g/ha: 60 g of a.i./ha. Here is the method:
as §1, §2, §3, §4

The subject of the next assay is Abutilon. Briefly: Post-emergence test/greenhouse. The settings on record: 504 h, after three weeks, read-out: degree of damage, Abutilon; for pest or weed control at 125 g/ha: 125 g of a.i./ha; for pest or weed control at 60 g/ha: 60 g of a.i./ha. On the procedure:
as §1, §2, §3, §4

Assay [1] deals with Chenopodium. Briefly: Post-emergence test/greenhouse. The settings on record: 504 h, after three weeks, read-out: degree of damage, Chenopodium; for pest or weed control at 125 g/ha: 125 g of a.i./ha. Here is the method: as §1, §2, §3, §4
Assay [2] has as its system Amaranthus. Briefly: Post-emergence test/greenhouse. The settings on record: 504 h, after three weeks, read-out: degree of damage, Amaranthus; for pest or weed control at 125 g/ha: 125 g of a.i./ha; for pest or weed control at 60 g/ha: 60 g of a.i./ha. On the procedure:
as §1, §2, §3, §4

For assay [3], the system named is weeds. Briefly: Post-emergence test, activity against weeds. Here is the method: as §1, §2, §3, §4
Another assay concerns Setaria. As to the kind of experiment: Post-emergence test/greenhouse. To be noted: after three weeks. On the procedure: as §1, §2, §3, §4
Assay [4] concerns weeds. Briefly: Pre-emergence test, activity against weeds. On the procedure: as §1
(§5) Seeds of the test plants are sown in normal soil. After about 24 hours, the soil is sprayed with the preparation of active compound such that the particular amount of active compound desired is applied per unit area. The concentration of the spray liquor is chosen so that the particular amount of active compound desired is applied in 1000 liters of water per hectare.
as §3, §4

For another assay, the system named is Matricaria. As to the kind of experiment: Pre-emergence test/greenhouse. The settings on record: 504 h, 125 g of a.i./ha, after three weeks, read-out: degree of damage, Matricaria. On the procedure: as §1, §5, §3, §4
The subject of assay [5] is Chenopodium. Briefly: Pre-emergence test/greenhouse. The settings on record: 125 g of a.i./ha, after three weeks. Here is the method:
as §1, §5, §3, §4

The test system of assay [6] is Amaranthus. As to the kind of experiment: Pre-emergence test/greenhouse. To be noted: 504 h, 125 g of a.i./ha, after three weeks, read-out: degree of damage, Amaranthus. Here is the method:
as §1, §5, §3, §4

Another assay has as its system Veronica. Briefly: Pre-emergence test/greenhouse. The settings on record: 504 h, 125 g of a.i./ha, after three weeks, read-out: degree of damage, Veronica. On the procedure:
as §1, §5, §3, §4

In the next assay the test system is Echinochloa. As to the kind of experiment: Pre-emergence test/greenhouse. To be noted: 504 h, 125 g of a.i./ha, after three weeks, read-out: degree of damage, Echinochloa. On the procedure: as §1, §5, §3, §4

Take `CCCn1ccs/c1=N\S(=O)(=O)NC(=O)n1nc(OCC)n(CC)c1=O` [Example 49]: the pest or weed control at 125 g/ha in the assay on Solanum was 95%; in the assay with Stellaria, 95%; in the assay with Abutilon, 70%; in the assay on Chenopodium [1], 100%; in the assay on Amaranthus [2], 100%. The activity against weeds result with weeds [3] is recorded as “very strong activity”.

On to `CCCc1nn(C(=O)NS(=O)(=O)/N=c2\sccn2CCC)c(=O)n1C` [Example 2], for which the “degree of damage, Setaria” value in the assay on Setaria (60 g of a.i./ha) is listed as 90%. Further, the pest or weed control at 60 g/ha in the assay with Solanum (60 g of a.i./ha) came out at 95%; in the assay on Stellaria, 90%; in the assay on Abutilon, 90%; in the assay with Amaranthus [2], 90%. For the same compound, the activity against weeds entry in the assay on weeds [3] is on record as “very strong activity”.

`CCCc1nn(C(=O)NS(=O)(=O)/N=c2\sccn2CCC)c(=O)n1C1CC1` [Example 55]: the pest or weed control at 125 g/ha in the assay with Solanum is 90%; in the assay with Stellaria it was 100%; in the assay on Abutilon it was 95%; in the assay with Chenopodium [1] it was 100%; in the assay with Amaranthus [2], 100%. In the assay with weeds [3], the activity against weeds result was “very strong activity”.

For the compound `CCCn1ccs/c1=N\S(=O)(=O)NC(=O)n1nc(OC(C)C)n(C)c1=O` [Example 9], the pest or weed control at 60 g/ha in the assay with Stellaria stood at 90%; in the assay with Abutilon, 90%; in the assay on Chenopodium [1] (60 g of a.i./ha), 80%; in the assay with Amaranthus [2], 90%. Moreover, in the assay on weeds [3], the activity against weeds result is on record as “very strong activity”.

`C/C=C/c1nn(C(=O)NS(=O)(=O)/N=c2\sccn2CCC)c(=O)n1C1CC1` [Example 51]: the activity against weeds result in the assay on weeds [4] was “very strong activity”. For the same compound, the pest or weed control at 125 g/ha in the assay with Matricaria, in the assay with Amaranthus [6] and in the assay on Veronica was 100% throughout. For the same compound, the “degree of damage, Chenopodium” value in the assay on Chenopodium [5] is given as 95%.

Turning to `CCCn1ccs/c1=N\S(=O)(=O)NC(=O)n1nc(OC)n(C2CC2)c1=O` [Example 29], in the assay on weeds [4], the activity against weeds result is given as “very strong activity”. Also, the pest or weed control at 125 g/ha with Matricaria was 95%; in the assay on Amaranthus [6], 100%; in the assay on Echinochloa, 95%; with Veronica it was 100%. Further, in the assay on Chenopodium [5], the “degree of damage, Chenopodium” value is given as 100%.

Regarding `CCCn1ccs/c1=N\S(=O)(=O)NC(=O)n1nc(OC2CC2)n(C2CC2)c1=O` [Example 34], the “degree of damage, Setaria” value in the assay on Setaria (125 g of a.i./ha) worked out at 70%. In addition, the pest or weed control at 125 g/ha in the assay with Solanum is 100%; with Stellaria, 100%; with Abutilon it was 95%; with Chenopodium [1] it was 100%; in the assay with Amaranthus [2] it was 100%. The activity against weeds entry in the assay on weeds [3] is recorded as “very strong activity”.

For the compound `CCCn1ccs/c1=N\S(=O)(=O)NC(=O)n1nc(C2CC2)n(C)c1=O` [Example 41], the “degree of damage, Setaria” value in the assay with Setaria (125 g of a.i./ha) came out at 70%. The pest or weed control at 125 g/ha in the assay with Solanum is 90%; with Stellaria, 95%; with Abutilon, 90%; in the assay on Amaranthus [2], 90%. For the same compound, the activity against weeds entry in the assay on weeds [3] is on record as “very strong activity”.

Consider `CCCn1ccs/c1=N\S(=O)(=O)NC(=O)n1nc(OCC2CC2)n(C)c1=O` [Example 48], for which the pest or weed control at 125 g/ha came to 80% with Solanum; 80% with Stellaria; 80% with Abutilon; 100% in the assay on Chenopodium [1]; 95% with Amaranthus [2]. Further, the activity against weeds result with weeds [3] is “very strong activity”.

The values are drawn from US6403535B1, “Substituted thiazol(in) ylideneamino sulfonylamino (thio)carbonyl-triazolinones” (Bayer Aktiengesellschaft, priority 1998, dated 2002).
